This note sets out measurements from ChEMBL document CHEMBL3393000, “Synthesis and anticancer activity of some 8-substituted-7-methoxy-2H-chromen-2-one derivatives toward hepatocellular carcinoma HepG2 cells” (Eur J Med Chem, 2015).

pIC50: −log10 of the molar value.

Assay [1] has as its system HepG2. The assay can be described thus: Cytotoxicity against human HepG2 cells assessed as reduction in cell viability after 72 hrs by MTT assay. To be noted: HepG2, 72 h. The class given is functional, cell-based.
Assay [2] addresses Telomerase reverse transcriptase (Homo sapiens) (UniProt O14746). The assay can be described thus: Inhibition of telomerase in human HepG2 cells at 2 uM after 3 days by TRAP-ELISA method. The class given is cell-based. For orientation: In an ELISA, binding on a coated surface is turned into a signal by an enzyme label.
Assay [3] shares this target. As to the kind of experiment: Inhibition of telomerase in human HepG2 cells at 2 uM after 2 days by TRAP-ELISA method. In kind it is cell-based.
The target is the same in assay [4]. The assay can be described thus: Inhibition of telomerase in human HepG2 cells at 4 uM after 2 days by TRAP-ELISA method. The class given is cell-based.
Assay [5] shares this target. The assay can be described thus: Inhibition of telomerase in human HepG2 cells at 1 to 4 uM after 1 to 3 days by TRAP-ELISA method. In kind it is cell-based.
The target is the same in assay [6]. The assay can be described thus: Inhibition of telomerase in human HepG2 cells at 4 uM after 3 days by TRAP-ELISA method. The class given is cell-based.
Assay [7] has the same target. As to the kind of experiment: Inhibition of telomerase in human HepG2 cells at 4 uM after 1 day by TRAP-ELISA method. In kind it is cell-based.
Assay [8] shares this target. As to the kind of experiment: Inhibition of telomerase in human HepG2 cells at 1 uM after 1 day by TRAP-ELISA method. In kind it is cell-based.
Assay [9] shares this target. The assay can be described thus: Inhibition of telomerase in human HepG2 cells at 2 uM after 1 day by TRAP-ELISA method. The class given is cell-based.
Assay [10] shares this target. As to the kind of experiment: Inhibition of telomerase in human HepG2 cells at 1 uM after 3 days by TRAP-ELISA method. In kind it is cell-based.
Assay [11] shares this target. As to the kind of experiment: Inhibition of telomerase in human HepG2 cells at 1 uM after 2 days by TRAP-ELISA method. The class given is cell-based.
In assay [12] the test system is HepG2. The assay can be described thus: Induction of apoptosis in human HepG2 cells at 0.02 umol/ml after 24 hrs by annexin V-FITC/propidium iodide staining based flow cytometry (reference value: 0.54%). The class given is functional. For orientation: Flow cytometry measures light scatter and fluorescence of single cells or particles in a stream.
Assay [13] deals with HepG2. As to the kind of experiment: Induction of apoptosis in human HepG2 cells at 0.01 umol/ml after 24 hrs by annexin V-FITC/propidium iodide staining based flow cytometry (reference value: 0.54%). In kind it is functional.
The subject of assay [14] is HepG2. As to the kind of experiment: Induction of apoptosis in human HepG2 cells at 0.08 umol/ml after 24 hrs by annexin V-FITC/propidium iodide staining based flow cytometry (reference value: 0.54%). The class given is functional.
Assay [15] relates to HepG2. The assay can be described thus: Induction of apoptosis in human HepG2 cells at 0.01 to 0.08 umol/ml after 24 hrs by annexin V-FITC/propidium iodide staining based flow cytometry. In kind it is functional, cell-based.
The test system of assay [16] is HepG2. The assay can be described thus: Induction of apoptosis in human HepG2 cells at 0.04 umol/ml after 24 hrs by annexin V-FITC/propidium iodide staining based flow cytometry (reference value: 0.54%). The class given is functional.

Telomerase reverse transcriptase (Homo sapiens), sequence (O14746 whole entry): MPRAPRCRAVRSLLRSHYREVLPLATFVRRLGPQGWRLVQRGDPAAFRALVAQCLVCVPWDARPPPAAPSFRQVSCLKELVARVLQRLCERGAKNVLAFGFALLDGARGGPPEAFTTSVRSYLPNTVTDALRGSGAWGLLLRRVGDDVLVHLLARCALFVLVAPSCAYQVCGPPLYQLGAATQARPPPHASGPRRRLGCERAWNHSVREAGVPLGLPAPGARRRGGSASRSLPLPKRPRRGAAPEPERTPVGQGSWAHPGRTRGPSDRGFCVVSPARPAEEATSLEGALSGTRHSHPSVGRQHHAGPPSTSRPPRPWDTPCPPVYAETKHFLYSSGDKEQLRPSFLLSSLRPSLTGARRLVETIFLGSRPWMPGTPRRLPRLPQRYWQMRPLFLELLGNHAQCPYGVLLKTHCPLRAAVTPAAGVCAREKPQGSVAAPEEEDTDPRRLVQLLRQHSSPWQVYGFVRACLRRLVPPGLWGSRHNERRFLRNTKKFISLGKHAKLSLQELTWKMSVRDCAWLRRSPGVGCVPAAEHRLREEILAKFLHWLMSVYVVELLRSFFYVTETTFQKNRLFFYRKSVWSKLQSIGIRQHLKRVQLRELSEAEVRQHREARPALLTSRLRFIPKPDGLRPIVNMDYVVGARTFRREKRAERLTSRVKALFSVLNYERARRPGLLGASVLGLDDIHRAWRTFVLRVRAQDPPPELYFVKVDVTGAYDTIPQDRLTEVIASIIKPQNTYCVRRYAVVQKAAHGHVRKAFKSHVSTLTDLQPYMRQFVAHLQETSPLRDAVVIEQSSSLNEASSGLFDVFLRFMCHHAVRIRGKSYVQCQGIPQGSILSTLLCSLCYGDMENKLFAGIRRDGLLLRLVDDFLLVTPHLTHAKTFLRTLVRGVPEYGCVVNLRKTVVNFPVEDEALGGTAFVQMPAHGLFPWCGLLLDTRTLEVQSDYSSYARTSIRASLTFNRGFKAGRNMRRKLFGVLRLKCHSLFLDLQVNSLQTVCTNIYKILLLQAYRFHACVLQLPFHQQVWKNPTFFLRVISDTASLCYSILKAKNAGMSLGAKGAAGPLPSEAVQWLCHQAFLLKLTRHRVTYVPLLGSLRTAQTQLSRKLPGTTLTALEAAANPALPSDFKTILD

Turning to `COc1ccc2ccc(=O)oc2c1C(/C=C/c1ccccc1)=N/NC(N)=O`, the negative-log IC50 (pIC50) (usually the IC50 on a negative log10 scale, so that one unit is a factor of ten) with HepG2 [1] was 7.09.

Take `COc1ccc2ccc(=O)oc2c1C1=NN(C(C)=O)C(c2ccc(C)cc2)C1` (configuration not stated): the negative-log IC50 (pIC50) in the assay on HepG2 [1] was 7.30.

In the case of `COc1cccc2c1C(=O)c1c(O)c3c(c(O)c1C2=O)C[C@@](O)(C(=O)CO)C[C@@H]3O[C@H]1C[C@H](N)[C@H](O)[C@H](C)O1` [DOXORUBICIN], the negative logarithm of the IC50 (pIC50) in the assay with HepG2 [1] was 6.20.

With `COc1ccc2ccc(=O)oc2c1C1=NN(C(C)=O)C(c2cccs2)C1` (configuration not stated), the pIC50 in the assay with HepG2 [1] was 7.12.

In the case of `COc1ccc2ccc(=O)oc2c1C1=NN(c2ccccc2)C(c2ccc(C(F)(F)F)cc2)C1` (configuration not stated), the pIC50 in the assay on HepG2 [1] was 7.42.

`COc1ccc2ccc(=O)oc2c1C1=NN(C(N)=O)C(c2ccc(C(F)(F)F)cc2)C1` (configuration not stated): the negative logarithm of the IC50 (pIC50) in the assay on HepG2 [1] was 7.02.

Consider `COc1ccc2ccc(=O)oc2c1C(/C=C/c1cccs1)=N/NC(N)=O`, for which the pIC50 with HepG2 [1] was 7.12.

Turning to `COc1ccc2ccc(=O)oc2c1C1=NN(C(C)=O)C(c2ccc(C(F)(F)F)cc2)C1` (configuration not stated), in the assay with HepG2 [1], the negative-log IC50 (pIC50) is 7.10.

In the case of `COc1ccc2ccc(=O)oc2c1C1=NN(c2ccccc2)C(c2cccs2)C1` (configuration not stated), the inhibition (usually the relative decrease from the control value, in per cent) in assay [2] is 40.3%; in assay [3], 30%; in assay [4] it was 56.6%; in assay [5] it was “Dose-dependent effect”; in [6], 68.3%; in [7], 28%. Besides, the inhibition turned out to be 16.8% in assay [8], 20.1% in assay [9], 26.1% in assay [10] and 19.4% in assay [11]. Also, the pIC50 with HepG2 [1] is 7.82.

`COc1ccc2ccc(=O)oc2c1C1=NNC(c2ccc(C(F)(F)F)cc2)C1` (configuration not stated): the inhibition in assay [2] is 42%; in assay [3], 31.2%; in assay [4] it was 59%; in assay [5], “Dose-dependent effect”; in assay [6], 71.1%; in assay [7], 29.2%. In addition, the inhibition was determined as 17.5% in [8], 21% in assay [9], 27.2% in [10] and 20.2% in assay [11]. For the same compound, the pIC50 with HepG2 [1] is 7.89.

On to `COc1ccc2ccc(=O)oc2c1C1=NN(c2ccccc2)C(c2ccc(C)cc2)C1` (configuration not stated), for which the pIC50 in the assay on HepG2 [1] was 7.29.

In the case of `COc1ccc2ccc(=O)oc2c1C1=NN(C(C)=O)C(c2ccc(SC)cc2)C1` (configuration not stated), the negative-log IC50 (pIC50) in the assay on HepG2 [1] was 7.38.

`COc1ccc2ccc(=O)oc2c1C1=NNC(c2cccs2)C1` (configuration not stated): the inhibition was 44.6% in [2]; 33.1% in [3]; 62.6% in assay [4]; “Dose-dependent effect” in assay [5]; 75.5% in assay [6]; 31% in [7]. Also, the inhibition turned out to be 18.6% in assay [8], 22.3% in assay [9], 28.9% in assay [10] and 21.5% in assay [11]. In the assay on HepG2 [1], the negative logarithm of the IC50 (pIC50) was 7.96.

With `COc1ccc2ccc(=O)oc2c1C(/C=C/c1ccc(C)cc1)=N/NC(N)=O`, in the assay on HepG2 [1], the pIC50 is 7.03.

Consider `COc1ccc2ccc(=O)oc2c1C1=NN(C(N)=O)C(c2ccc(C)cc2)C1` (configuration not stated), for which, in the assay with HepG2 [1], the pIC50 was 7.34.

As to `CN[C@@H]1C[C@H]2O[C@@](C)([C@@H]1OC)n1c3ccccc3c3c4c(c5c6ccccc6n2c5c31)C(=O)NC4`, the inhibition was 28.7% in [2]; 18.9% in assay [3]; 40.1% in assay [4]; “Dose-dependent effect” in [5]; 56.5% in [6]; 30.1% in [7]. Also, the inhibition in [8] was determined as 10.7%; in [9], 12.7%; in assay [10] it was 15.4%; in assay [11], 11.3%.

For `COc1ccc2ccc(=O)oc2c1C1=NN(C(N)=O)C(c2ccc(SC)cc2)C1` (configuration not stated), the inhibition in assay [2] is 36.5%; in [3], 27.1%; in assay [4], 51.2%; in [5], “Dose-dependent effect”; in assay [6], 61.7%; in assay [7] it was 25.3%. Also, the inhibition worked out at 15.2% in assay [8], 18.2% in assay [9], 23.6% in assay [10] and 17.6% in assay [11]. For the same compound, in the assay with HepG2 [1], the pIC50 is 7.74.

As for `COc1ccc2ccc(=O)oc2c1C1=NN(c2ccccc2)C(c2ccccc2)C1` (configuration not stated), the negative logarithm of the IC50 (pIC50) with HepG2 [1] was 7.14.

On to `COc1ccc2ccc(=O)oc2c1CC=C(C)C` [OSTHOLE], for which the pIC50 with HepG2 [1] was 3.79.

For the compound `COc1ccc2ccc(=O)oc2c1C1=NNC(c2ccc(SC)cc2)C1` (configuration not stated), the inhibition was 46.4% in assay [2]; 34.5% in assay [3]; 65.2% in assay [4]; “Dose-dependent effect” in [5]; 78.6% in assay [6]; 32.3% in [7]. Besides, the inhibition in assay [8] is 19.4%; in assay [9], 23.2%; in [10] it was 30.1%; in assay [11], 22.4%. Further, the Activity in the assay with HepG2 [12] is 35%; in the assay with HepG2 [13] it was 25.45%; in the assay on HepG2 [14], 46.85%; in the assay on HepG2 [15], “Dose-dependent effect”; in the assay on HepG2 [16] it was 40.96%. For the same compound, in the assay with HepG2 [1], the pIC50 is 8.00.

For `COc1ccc2ccc(=O)oc2c1C1=NN(C(N)=O)C(c2ccccc2)C1` (configuration not stated), the pIC50 in the assay with HepG2 [1] was 7.05.

Turning to `COc1ccc2ccc(=O)oc2c1C1=NN(c2ccccc2)C(c2ccc(SC)cc2)C1` (configuration not stated), the pIC50 with HepG2 [1] was 7.11.

Consider `COc1ccc2ccc(=O)oc2c1C1=NNC(c2ccccc2)C1` (configuration not stated), for which the pIC50 with HepG2 [1] is 7.32.

Regarding `COc1ccc2ccc(=O)oc2c1C1=NN(C(C)=O)C(c2ccccc2)C1` (configuration not stated), the negative logarithm of the IC50 (pIC50) with HepG2 [1] was 7.28.

Consider `COc1ccc2ccc(=O)oc2c1C(/C=C/c1ccc(SC)cc1)=N/NC(N)=O`, for which the negative logarithm of the IC50 (pIC50) in the assay with HepG2 [1] is 7.00.

Regarding `COc1ccc2ccc(=O)oc2c1C(/C=C/c1ccc(C(F)(F)F)cc1)=N/NC(N)=O`, the pIC50 in the assay with HepG2 [1] is 7.02.

Consider `COc1ccc2ccc(=O)oc2c1C1=NNC(c2ccc(C)cc2)C1` (configuration not stated), for which, in the assay on HepG2 [1], the negative logarithm of the IC50 (pIC50) was 7.37.

For the compound `COc1ccc2ccc(=O)oc2c1C1=NN(C(N)=O)C(c2cccs2)C1` (configuration not stated), the pIC50 in the assay with HepG2 [1] was 7.59.
